From US9713613B2, “Methods and compositions for the treatment of cancer and related hyperproliferative disorders” (priority 2007, dated 2017)
“Also recorded” adds a separate entry of the source.

Tests used:
[1] = tested on: ob/ob mice; test: ob/ob mice, four weeks daily ip treatment; assay type: in vivo
Experimental: The study employed 4-5 week old male ob/ob mice of average weight of about 23 g/mouse. Fatostatin A (30 mg/kg/day) was delivered intraperitoneally daily, and body weight and food intake were measured. […] At the end of first week of treatment ob control mice injected with DMSO gained on average of 4.82 g/mouse (from 23.58±0.62 to 28.40±1.45), whereas the fatostatin treated group gained about 3.37 g/mouse (23.08±1.53 to 26.45±1.2 g/mouse), (p=0.03). After 28 days of treatment the fatostatin A treated group weighed about 12% less than the controls weeks (32.1±1.4 compared to 36.2±2.2 g/mouse […]) (P=0.02). The accumulative food intake was similar in both groups FIG. 8C).
Four- to 5-week old homozygous male obese (ob/ob) mice (C57BL/6J, The Jackson Laboratory, Bar Harbor, Me.) were housed under controlled conditions (12-hr light/dark cycle; 25° C.). The animals were housed 5 per cage and had ad libitum access to standard laboratory chow (Purina Mills, Richmond Ind.) and water for one week after their arrival. On first day of the experiment and every day thereafter the weight of the mice and the amount of the food consumed were measured. The weight of mice and food remaining were measured daily between 3-5 p.m. before the ip injection of fatostatin A (30 mg/kg; 150 μL). The administration of Fatostatin A or 10% DMSO in PBS to control groups (n=5) continued daily for four weeks till the end of the study.
After 28 days of daily injection of fatostatin A mice were fasted overnight and blood was withdrawn and Whole blood glucose and 3-hydroxybutyrate were measured with a Glucometer Precision Xtra (Abbott). For determination of serum constituents. Glucose, triglyceride and cholesterol measurements were done by the Comparative Pathology Laboratory (Baylor College of Medicine). Serum non-esterified fatty acids (NEFA) were measured by using NEFA C kit (Wako Chemicals, Richmond, Va.).
Mice were sacrificed and weights of livers, and Epididymal fat pads were determined. Frozen sections of Liver slices from individual animals were stained with Oil Red O to visualize the fat droplets (TG) in liver slices as described earlier (Abu-Elheiga et al., 2001). The remaining liver tissues were frozen in liquid nitrogen and kept at −80° C. for further analysis.
Liver triglyceride and cholesterol contents were carried out as described in the reference (Chandler, et al., 2003) using Cholesterol E Kit (Wako) and Infinity Triglyceride Kit (Thermo Electron, Melbourne, Australia), adapted for colorimetric analysis in 96-well plate format.
A portion of the frozen liver was ground to powder in liquid nitrogen. The powdered tissues were suspended in 10 ml of PBS containing 0.1 mM PMSF, 5 mM benzamidine, and 5 mg/ml protease inhibitor cocktail (Roche), and homogenized using Polytron (3×30 Sec, at high speed) and sonicated briefly to degrade DNA. The extracts were clarified by centrifugation at 16,000×g for 20 min. Protein concentrations in the supernatant were determined, and subjected to western blot analysis using commercially available antibodies against the following enzymes: FAS (BD Biosciences), citrate lyase SCD1, FADS1, ACC and phospho-ACC antibodies. The proteins were visualized using Amersham ECL Plus™ Western Blotting Detection Reagents. The intensity of the specific bands of proteins of interest were scanned and normalized against beta-actin for quantifications. FAS and ACC activities from the liver extracts were determined as described earlier (Mao et al., 2006).
Total RNA was prepared from mouse tissues using TRIzol reagent (Invitrogen). Equal amounts of RNA from 5 mice were pooled and treated with DNase I (Turbo DNA-free, Ambion, Inc.). First stranded cDNA was synthesized from 2 μg of DNase I-treated total RNA with random hexamer primer using Superscript II RNase H-reverse transcriptase (Invitrogen). […]

[2] = tested on: SUM159 cells; test: SUM159 cell growth, WST-1 assay, and lipogenic gene expression; assay type: cell-based, human
Experimental: Cells were seeded onto 96 well plates at a density of 10000 cells/well in 100 ul medium containing 2% charcoal stripped serum. After 24 hours, compound 19 was added to the cells at the indicated concentrations for another 48 hours. Cell viability was determined using WST-1 assay.
Cells seeded onto 96 well plates at a density of 5000 cells/well in 100 μl medium containing 2% charcoal treated serum. After 24 hours different concentrations of compound 19 were added for an additional 48 hours. Cell viability was measured using WST-1 Cell Viability and Proliferation Assay (ScienCell Research Laboratory, Carlsbad Calif.). Changes in expression levels of lipogenic genes mRNA was determined in cells that were treated with 10 μM. […] Insig2 gene which is not known to be regulated by these transcription factors was not affected by the treatment (FIG. 33B).

[3] = tested on: HePG2 cells; test: HePG2 cell growth, SREBP-1 western blot; assay type: cell-based, human
Experimental: Cells were seeded onto 16 well plates at a density of 100000 cells/well in medium containing 2% charcoal stripped serum. After 24 hours, compound 19 was added to the cells at the indicated concentrations for another 48 hours. […] Values are depicted as means±SD; *P<0.05.

[4] = western blot, normalized to actin

## CCCc1cc(-c2nc(-c3ccc(C)cc3)cs2)ccn1 [Compound 1, 2-propyl-4-(4-p-tolylthiazol-2-yl)pyridine]
[1]; 30 mg/kg ip daily, four weeks
  toxicity during the treatment: no obvious toxicity
[1]; 30 mg/kg/day ip, control 4.82
  body weight gain at the end of first week: about 3.37 g/mouse
[1]; 30 mg/kg/day ip, from 23.08±1.53
  body weight at the end of first week: 26.45±1.2 g/mouse
[1]; 28 days
  decrease in serum HDL: about 22%
  decrease in serum LDL: about 35%
  increase of VLDL: about 50%
  serum non esterified free fatty acids (NEFA) higher than controls: about 70%
  serum triglycerides (TG) increase compared to controls: about 30%
[1]; 28 days, blood, listed as fatostatin A
  ketone bodies (hydroxy butyrate) increase compared to controls: increased about seven fold; also recorded: seven fold increase
[1]; 28 days, fasted mice, control 429.4±87
  serum glucose: 153.2 ± 30.5 mg/dL
[1]; 28 days, fasted mice, listed as fatostatin
  serum glucose lower than controls: ~70%
[1]; 28 days, fasted mice, listed as fatostatin A
  serum glucose lower than controls: about 70%
[1]; 28 days, control 0.5±0.37
  ketone bodies (hydroxy butyrate): 3.62 ± 1.41 mg/dL
[1]; 28 days, control 0.7±0.2
  serum NEFA: 1.93±0.26 mEq/l
[1]; 28 days, control 48±8
  serum LDL: 31±3
[1]; 28 days, control 79±12
  serum triglycerides (TG): 115±11
[1]; 28 days, control 183±12
  serum HDL: 144±11
[1]; 28 days, control 219±18
  serum total cholesterol: 183 ± 16 mg/dL
[1]; after 28 days of treatment
  body weight less than controls: about 12%
[1]; after 28 days of treatment, control 36.2±2.2
  body weight: 32.1±1.4 g/mouse
[1]; average over 28 days, control 5.9±1.4
  food intake: 5.4±1.5 g/mouse·day
[1]; calculated based on TG levels, control 15.8±2.4
  VLDL: 23.1 ± 2.3 mg/dL
[1]; control 5.9+1.4
  average daily food intake: 5.4+1.5 g/mouse/d
[1]; four weeks
  average weight of epididymal fat pads less than controls: about 20%
  decrease of ACC activity in liver extracts: about 40%
  reduction of FAS activity in liver extracts: more than 70%
  reduction of TG levels in livers: about 65%
  reduction of cholesterol levels in liver: more than 20%
[1]; four weeks, control 2.34±0.15
  average weight of livers: 1.59±0.2
[1]; four weeks, control 3.6±0.1
  cholesterol levels in liver: 2.8±0.5
[1]; four weeks, control 3.6±0.2
  average weight of epididymal fat pads: 2.7±0.1
[1]; four weeks, control 5.55±0.57
  ACC activity in liver extracts: 3.44±0.44 n mol/min·mg
[1]; four weeks, control 22.6±1.37
  FAS activity in liver extracts: 8.64±1.91 n mol/min·mg
[1]; four weeks, control 38.7±6.0
  TG levels in livers: 14.8±3.7 mg/gram liver
[1]; four weeks, listed as fatostatin
  average weight of livers less than controls: ~32%
[1]; four weeks, listed as fatostatin A
  average weight of livers less than controls: about 32%
[1]; real time PCR
  reduction of PPAR γ mRNA level in liver: about 40%
[1]; real time PCR, normalized to actin
  reduction in the mRNA levels of ACC1, FAS and SCD1 in liver: about 80%
[1]; western blot
  protein level of FADS 1 or Δ5 Desaturase in liver: did not change
[1]; [4]
  reduction of ACL protein level in liver extracts: about 70%
  reduction of SCD1 protein level in liver extracts: about 50%

## CCCc1cc(-c2nc(-c3ccc(NS(C)(=O)=O)cc3)cs2)ccn1 [Compound 19, N-(4-(2-(2-propylpyridin-4-yl)thiazol-4-yl)phenyl)methanesulfonamide]
[2]; 10 μM, Insig2 not affected
  expression levels of lipogenic genes mRNA under the control of SREBPs: significant downregulation
[2]; different concentrations, 48 hours, 2% charcoal treated serum
  cell growth / viability: inhibition of cell growth and a toxic effect
[3]; 25 μM, HePG2 cells
  level of mature and precursor forms of SREBP-1 (western blot): significant decrease in the level of the mature and active form
[3]; 25, 50 and 100 μM, 48 hours
  toxicity, morphology and growth of treated cells: high level of toxicity
